Data published in the supplement of paper PMC10883282.

How the values were obtained:
Assay in all cases: relative viability vs DMSO control (72 h) (fraction); higher = more viable cells
KHOS-240S = test system: KHOS-240S
In short: (§1)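 Plates held 72 h at 37 °C and 5% CO2 contained sarcoma cell lines seeded in 384-well format to reach 80–90% confluence, plus 2.5 µl of serially diluted compound added after 24 h. Source plate concentrations ran from 10 mM to 0.0002 mM, with 0.1% DMSO as vehicle and a 5 µM positive control. Percent growth from ATPLite readings, averaged over up to triplicate wells, gave relative viability. Values were rescaled with 1 as full and 0 as none.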

RD = test system: RD
In short: as §1

SYO-1 = test system: SYO-1
In short: as §1

MES-SA = test system: MES-SA
In short: as §1

SW1353 = test system: SW1353
In short: as §1

SW982 = test system: SW982
In short: as §1

VA-ES-BJ = test system: VA-ES-BJ
In short: as §1

HT1080 = test system: HT1080
In short: as §1

SK-LMS-1 = test system: SK-LMS-1
In short: as §1

RD-ES = test system: RD-ES
In short: as §1

G401 = test system: G401
In short: as §1

SK-ES-1 = test system: SK-ES-1
In short: as §1

CN(C)C[C@@H]1CCn2cc(c3ccccc32)C2=C(C(=O)NC2=O)c2cn(c3ccccc23)CCO1 [Ruboxistaurin]
Details	relative viability
G401, 0.00017 µM	1.03
G401, 0.00051 µM	1.01
G401, 0.00152 µM	0.988
G401, 0.00457 µM	1.01
G401, 0.01372 µM	1.02
G401, 0.04115 µM	0.961
G401, 0.1235 µM	1.02
G401, 0.3704 µM	1.01
G401, 1.111 µM	0.958
G401, 3.333 µM	0.938
G401, 10 µM	0.0283
HT1080, 0.00017 µM	1.06
HT1080, 0.00051 µM	1.1
HT1080, 0.00152 µM	1.05
HT1080, 0.00457 µM	1.04
HT1080, 0.01372 µM	1.05
HT1080, 0.04115 µM	1.06
HT1080, 0.1235 µM	1.08
HT1080, 0.3704 µM	1.03
HT1080, 1.111 µM	1.08
HT1080, 3.333 µM	1.12
HT1080, 10 µM	0.904
KHOS-240S, 0.00017 µM	1.04
KHOS-240S, 0.00051 µM	1.05
KHOS-240S, 0.00152 µM	1.03
KHOS-240S, 0.00457 µM	1.04
KHOS-240S, 0.01372 µM	1.02
KHOS-240S, 0.04115 µM	1.02
KHOS-240S, 0.1235 µM	1.03
KHOS-240S, 0.3704 µM	1.014
KHOS-240S, 1.111 µM	1.04
KHOS-240S, 3.333 µM	1.03
KHOS-240S, 10 µM	0.715
MES-SA, 0.00017 µM	0.918
MES-SA, 0.00051 µM	0.909
MES-SA, 0.00152 µM	0.9276
MES-SA, 0.00457 µM	0.9006
MES-SA, 0.01372 µM	0.923
MES-SA, 0.04115 µM	0.91
MES-SA, 0.1235 µM	0.898
MES-SA, 0.3704 µM	0.887
MES-SA, 1.111 µM	0.84
MES-SA, 3.333 µM	0.7551
MES-SA, 10 µM	0.428
RD, 0.00017 µM	1.09
RD, 0.00051 µM	1.09
RD, 0.00152 µM	1.11
RD, 0.00457 µM	1.12
RD, 0.01372 µM	1.11
RD, 0.04115 µM	1.1
RD, 0.1235 µM	1.12
RD, 0.3704 µM	1.1
RD, 1.111 µM	1.127
RD, 3.333 µM	1.08
RD, 10 µM	0.857
RD-ES, 0.00017 µM	0.981
RD-ES, 0.00051 µM	0.993
RD-ES, 0.00152 µM	0.9893
RD-ES, 0.00457 µM	0.988
RD-ES, 0.01372 µM	0.952
RD-ES, 0.04115 µM	0.978
RD-ES, 0.1235 µM	0.956
RD-ES, 0.3704 µM	0.993
RD-ES, 1.111 µM	0.96
RD-ES, 3.333 µM	0.862
RD-ES, 10 µM	0.0404
SK-ES-1, 0.00017 µM	1.03
SK-ES-1, 0.00051 µM	1.06
SK-ES-1, 0.00152 µM	1.07
SK-ES-1, 0.00457 µM	1.08
SK-ES-1, 0.01372 µM	1.07
SK-ES-1, 0.04115 µM	1.02
SK-ES-1, 0.1235 µM	1.01
SK-ES-1, 0.3704 µM	0.963
SK-ES-1, 1.111 µM	0.869
SK-ES-1, 3.333 µM	0.74
SK-ES-1, 10 µM	0.421
SK-LMS-1, 0.00017 µM	1.05
SK-LMS-1, 0.00051 µM	1.02
SK-LMS-1, 0.00152 µM	1.05
SK-LMS-1, 0.00457 µM	1.05
SK-LMS-1, 0.01372 µM	1.09
SK-LMS-1, 0.04115 µM	1.08
SK-LMS-1, 0.1235 µM	1.05
SK-LMS-1, 0.3704 µM	0.995
SK-LMS-1, 1.111 µM	0.922
SK-LMS-1, 3.333 µM	0.778
SK-LMS-1, 10 µM	0.4619
SW982, 0.00017 µM	1.03
SW982, 0.00051 µM	1.03
SW982, 0.00152 µM	1.04
SW982, 0.00457 µM	1.03
SW982, 0.01372 µM	1.05
SW982, 0.04115 µM	1.04
SW982, 0.1235 µM	1.04
SW982, 0.3704 µM	1.03
SW982, 1.111 µM	0.949
SW982, 3.333 µM	0.846
SW982, 10 µM	0.349
SW1353, 0.00017 µM	1.02
SW1353, 0.00051 µM	1.01
SW1353, 0.00152 µM	0.983
SW1353, 0.00457 µM	0.99
SW1353, 0.01372 µM	0.975
SW1353, 0.04115 µM	0.994
SW1353, 0.1235 µM	0.961
SW1353, 0.3704 µM	0.977
SW1353, 1.111 µM	0.894
SW1353, 3.333 µM	0.827
SW1353, 10 µM	0.252
SYO-1, 0.00017 µM	0.962
SYO-1, 0.00051 µM	0.9554
SYO-1, 0.00152 µM	0.962
SYO-1, 0.00457 µM	0.941
SYO-1, 0.01372 µM	0.931
SYO-1, 0.04115 µM	0.933
SYO-1, 0.1235 µM	0.899
SYO-1, 0.3704 µM	0.849
SYO-1, 1.111 µM	0.79
SYO-1, 3.333 µM	0.347
SYO-1, 10 µM	-0.0266
VA-ES-BJ, 0.00017 µM	0.988
VA-ES-BJ, 0.00051 µM	0.999
VA-ES-BJ, 0.00152 µM	0.984
VA-ES-BJ, 0.00457 µM	0.988
VA-ES-BJ, 0.01372 µM	0.982
VA-ES-BJ, 0.04115 µM	0.996
VA-ES-BJ, 0.1235 µM	0.9734
VA-ES-BJ, 0.3704 µM	0.945
VA-ES-BJ, 1.111 µM	0.861
VA-ES-BJ, 3.333 µM	0.825
VA-ES-BJ, 10 µM	0.651
